Reference: patent publication US20210221866A1, “PROTEASE-RESISTANT LIPIDATED GLP-1 ANALOGS” (MEDIMMUNE LIMITED, priority 2015, published 2021)
Where two headings read alike, the source gives them in different places. Numbered stars: 1 amine (or outer) side, 2 acyl side, 3 side chain; on linkers, the order of the positions; unused ones are H or OH. Square brackets hold non-standard residues; d marks the D form. Side chains are listed from the residue outwards. Peptide text beside a SMILES is read from it. * marks the point of attachment. C18 diacid = O=C(O)CCCCCCCCCCCCCCCCC(=O)*; γGlu = O=C(O)[C@H](CCC(=O)[*:2])N[*:1]; αMeF = C[C@](N)(Cc1ccccc1)C(=O)O; αMeK = C[C@](N)(CCCCN)C(=O)O; αMeS = C[C@](N)(CO)C(=O)O; AEEA = NCCOCCOCC(=O)O; Aib = CC(C)(N)C(=O)O

Legend:
Format in all cases: cell-based
[1] = target: T1, human GLP-1 receptor (GLP-1R) (Homo sapiens, UniProt P43220); assay: cAMP assay, human GLP-1R cells
T1 construct: expressed in transfected cells; host or cells: HEK293 cells or CHO cells
Summary of the method: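 Peptide-stimulated cAMP measured by two-step HTRF after a 30 min room-temperature incubation with receptor-expressing cells (hGLP-1R, hGIPR at 1×10^5 cells/ml; hGCGR at 2×10^5 cells/ml). Duplicate dilutions; EC50 from 4-parameter logistic fit of % Delta F.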

[2] = target: T2, human glucagon receptor (GCGR) (Homo sapiens, UniProt P47871); assay: cAMP assay, human GCGR cells; details: read-out: Primary assay EC50 Gluc-R
T2 construct: expressed in transfected cells; host or cells: HEK293 cells or CHO cells
Method: (§1) Sample dilutions are made in duplicate.
(§2) A frozen cryo-vial of cells expressing the receptor of interest is thawed rapidly in a water-bath, transferred to pre-warmed assay buffer and spun at 240×g for 5 minutes. Cells are re-suspended in assay buffer at a batch-dependent optimized concentration (e.g. hGCGR cells at 2×10^5 cells/ml, hGLP-1R and hGIPR cells at 1×10^5 cells/ml).
(§3) To this, 5 μL cell suspension is added and the plates incubated at room temperature for 30 minutes.
(§4) cAMP levels are measured using a commercially available cAMP dynamic 2 HTRF kit (Cisbio, Cat #62AM4PEJ), following the two step protocol as per manufacturer's recommendations. In brief; anti-cAMP cryptate (donor fluorophore) and cAMP-d2 (acceptor fluorophore) are made up separately by diluting each 1/20 in conjugate & lysis buffer provided in the kit. 5 μL anti-cAMP cryptate is added to wells of the assay plate, and 5 μL cAMP-d2 is added to wells except non-specific binding (NSB) wells, to which conjugate and lysis buffer are added. […] EC50 values of the synthetic peptides determined in cAMP assays are then determined.
(§5) Data is transformed to % Delta F as described in the manufacturer's guidelines and analyzed by 4-parameter logistic fit to determine EC50 values. […] To compare the balance of activities at the GLP-1R and GCGR between different peptides and across different conditions, these can be correlated, where the EC50's are related to those of comparator peptides.

[3] = target: T3, human glucose-dependent insulinotropic peptide receptor (GIPR) (Homo sapiens, UniProt P48546); assay: cAMP assay, human GIPR cells; details: read-out: Primary assay EC50 GIP-R
T3 construct: expressed in transfected cells; host or cells: HEK293 cells or CHO cells
T3 sequence (P48546 22-466): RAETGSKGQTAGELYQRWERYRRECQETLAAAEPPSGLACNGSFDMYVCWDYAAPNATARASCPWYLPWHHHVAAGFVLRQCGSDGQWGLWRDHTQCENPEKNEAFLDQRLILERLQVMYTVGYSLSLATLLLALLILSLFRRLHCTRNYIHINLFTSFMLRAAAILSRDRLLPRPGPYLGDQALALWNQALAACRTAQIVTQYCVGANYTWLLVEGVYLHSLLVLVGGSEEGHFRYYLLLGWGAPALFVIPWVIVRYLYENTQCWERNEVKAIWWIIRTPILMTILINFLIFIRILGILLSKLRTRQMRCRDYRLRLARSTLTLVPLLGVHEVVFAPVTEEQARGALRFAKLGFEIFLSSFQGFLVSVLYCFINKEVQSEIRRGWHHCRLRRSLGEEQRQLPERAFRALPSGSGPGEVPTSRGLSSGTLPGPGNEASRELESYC
Method: as §1, §2, §3, §4, §5

[4] = cAMP activity, first determination (n1), read-out: Primary assay EC50 GLP-1R n1
[5] = cAMP activity, mean of n1 and n2, read-out: Mean pM GLP-1R
[6] = cAMP activity, second determination (n2), read-out: Primary assay EC50 GLP-1R n2
[7] = cAMP activity, second determination (n2)
[8] = cAMP activity, first determination (n1)

T2 sequence (P47871 26-477): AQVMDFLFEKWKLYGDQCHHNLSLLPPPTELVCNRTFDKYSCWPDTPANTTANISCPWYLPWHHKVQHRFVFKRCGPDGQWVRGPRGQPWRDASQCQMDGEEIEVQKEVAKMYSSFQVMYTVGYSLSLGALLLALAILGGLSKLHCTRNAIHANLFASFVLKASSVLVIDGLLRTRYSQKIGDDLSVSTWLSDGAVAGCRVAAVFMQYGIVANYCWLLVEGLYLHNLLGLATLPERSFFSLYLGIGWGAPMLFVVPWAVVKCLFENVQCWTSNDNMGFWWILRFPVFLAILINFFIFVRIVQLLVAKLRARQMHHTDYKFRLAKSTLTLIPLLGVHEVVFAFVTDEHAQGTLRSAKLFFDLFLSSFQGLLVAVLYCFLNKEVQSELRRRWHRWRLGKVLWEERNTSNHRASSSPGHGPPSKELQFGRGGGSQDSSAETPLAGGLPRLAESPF
T1 sequence (P43220 24-463): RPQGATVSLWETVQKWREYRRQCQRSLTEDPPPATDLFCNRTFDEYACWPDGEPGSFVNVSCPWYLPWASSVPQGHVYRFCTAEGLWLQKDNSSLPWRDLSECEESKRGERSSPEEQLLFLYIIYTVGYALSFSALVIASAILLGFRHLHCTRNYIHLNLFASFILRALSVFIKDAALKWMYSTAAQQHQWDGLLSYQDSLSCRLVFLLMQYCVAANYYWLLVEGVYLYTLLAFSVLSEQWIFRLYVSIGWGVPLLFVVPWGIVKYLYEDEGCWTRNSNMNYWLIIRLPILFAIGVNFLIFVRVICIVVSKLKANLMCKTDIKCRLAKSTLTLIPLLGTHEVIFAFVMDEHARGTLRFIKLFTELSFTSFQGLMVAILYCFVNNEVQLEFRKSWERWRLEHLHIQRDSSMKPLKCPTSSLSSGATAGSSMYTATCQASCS

Row | SMILES | EC50 [1, 4] | EC50 [1, 5] | EC50 [1, 6] | EC50 [2, 7] | EC50 [3, 8] | EC50 [3, 7] | EC50 ([1]; mean of n1 and n2, read-out: Mean pM GLP-1R) | EC50 ([1]; replicate n1, read-out: Primary assay EC50 GLP-1R n1) | EC50 ([1]; replicate n2, read-out: Primary assay EC50 GLP-1R n2) | EC50 ([2]; second replicate (n2)) | EC50 ([3]; first replicate) | EC50 ([3]; second replicate (n2))
1 | CC(C)C[C@H](NC(=O)[C@](C)(Cc1ccccc1)NC(=O)[C@H](CO)NC(=O)[C@](C)(CO)NC(=O)[C@@H](NC(=O)[C@H](CC(=O)O)NC(=O)[C@H](CO)NC(=O)[C@@H](NC(=O)[C@](C)(Cc1ccccc1)NC(=O)[C@H](CO)NC(=O)CNC(=O)[C@H](CCC(=O)O)NC(=O)C(C)(C)NC(=O)[C@@H](N)Cc1c[nH]cn1)[C@@H](C)O)C(C)C)C(=O)N[C@@H](CCC(=O)O)C(=O)NCC(=O)N[C@@H](CCC(=O)O)C(=O)N[C@@H](C)C(=O)N[C@@H](C)C(=O)N[C@@](C)(CCCCN)C(=O)N[C@@H](CCC(=O)O)C(=O)N[C@@](C)(Cc1ccccc1)C(=O)N[C@@H](CCCCNC(=O)COCCOCCNC(=O)COCCOCCNC(=O)CC[C@H](NC(=O)CCCCCCCCCCCCCCCCC(=O)O)C(=O)O)C(=O)N[C@@H](C)C(=O)N[C@@](C)(Cc1ccccc1)C(=O)N[C@H](C(=O)N[C@H](C(=O)N[C@@](C)(CCCCN)C(=O)NCC(=O)NCC(N)=O)C(C)C)C(C)C [compound 106] (H-H[Aib]EGS[αMeF]TSDV[αMeS]S[αMeF]LEGEAA[αMeK]E[αMeF]K([AEEA-AEEA-γGlu-C18 diacid])A[αMeF]VV[αMeK]GG-NH2) | 6500 pM | 6140 pM | 5790 pM | ≥ 25.3 nM | ≥ 25 nM | ≥ 25.3 nM | – | – | – | – | – | –
2 | CC[C@H](C)[C@H](NC(=O)[C@](C)(Cc1ccccc1)NC(=O)[C@H](CCC(=O)O)NC(=O)[C@](C)(CCCCN)NC(=O)[C@H](C)NC(=O)[C@H](C)NC(=O)[C@H](CCC(=O)O)NC(=O)CNC(=O)[C@H](CCC(=O)O)NC(=O)[C@H](CC(C)C)NC(=O)[C@](C)(Cc1ccccc1)NC(=O)[C@H](CO)NC(=O)[C@H](CCCCNC(=O)COCCOCCNC(=O)COCCOCCNC(=O)CC[C@H](NC(=O)CCCCCCCCCCCCCCCCC(=O)O)C(=O)O)NC(=O)[C@@H](NC(=O)[C@H](CC(=O)O)NC(=O)[C@H](CO)NC(=O)[C@@H](NC(=O)[C@](C)(Cc1ccccc1)NC(=O)[C@H](CO)NC(=O)CNC(=O)[C@H](CCC(=O)O)NC(=O)C(C)(C)NC(=O)[C@@H](N)Cc1c[nH]cn1)[C@@H](C)O)C(C)C)C(=O)N[C@@H](C)C(=O)N[C@@](C)(Cc1ccccc1)C(=O)N[C@H](C(=O)N[C@H](C(=O)N[C@@](C)(CCCCN)C(=O)NCC(=O)NCC(N)=O)C(C)C)C(C)C [compound 118] | 810 pM | 783 pM | 758 pM | ≥ 25.2 nM | ≥ 25 nM | ≥ 25.2 nM | – | – | – | – | – | –
3 | CC[C@H](C)[C@H](NC(=O)[C@](C)(Cc1ccccc1)NC(=O)[C@H](CCC(=O)O)NC(=O)[C@](C)(CCCCN)NC(=O)[C@H](C)NC(=O)[C@H](C)NC(=O)[C@H](CCC(=O)O)NC(=O)CNC(=O)[C@H](CCC(=O)O)NC(=O)[C@H](CC(C)C)NC(=O)[C@](C)(Cc1ccccc1)NC(=O)[C@H](CO)NC(=O)[C@](C)(CO)NC(=O)[C@@H](NC(=O)[C@H](CC(=O)O)NC(=O)[C@H](CCCCNC(=O)COCCOCCNC(=O)COCCOCCNC(=O)CC[C@H](NC(=O)CCCCCCCCCCCCCCCCC(=O)O)C(=O)O)NC(=O)[C@@H](NC(=O)[C@](C)(Cc1ccccc1)NC(=O)[C@H](CO)NC(=O)CNC(=O)[C@H](CCC(=O)O)NC(=O)C(C)(C)NC(=O)[C@@H](N)Cc1c[nH]cn1)[C@@H](C)O)C(C)C)C(=O)N[C@@H](C)C(=O)N[C@@](C)(Cc1ccccc1)C(=O)N[C@H](C(=O)N[C@H](C(=O)N[C@@](C)(CCCCN)C(=O)NCC(=O)NCC(N)=O)C(C)C)C(C)C [compound 121] (H-H[Aib]EGS[αMeF]TK([AEEA-AEEA-γGlu-C18 diacid])DV[αMeS]S[αMeF]LEGEAA[αMeK]E[αMeF]IA[αMeF]VV[αMeK]GG-NH2; N-terminus assumed) | ≥ 25000 pM | ≥ 25100 pM | ≥ 25100 pM | ≥ 25.1 nM | ≥ 25 nM | ≥ 25.1 nM | – | – | – | – | – | –
4 | CC[C@H](C)[C@H](NC(=O)[C@](C)(Cc1ccccc1)NC(=O)[C@H](CCC(=O)O)NC(=O)[C@H](CCCCNC(=O)CCCCCNC(=O)CCCCCCCCCCCCCCCCC(=O)O)NC(=O)[C@H](C)NC(=O)[C@H](C)NC(=O)[C@H](CCC(=O)O)NC(=O)CNC(=O)[C@H](CCC(=O)O)NC(=O)[C@H](CC(C)C)NC(=O)[C@](C)(Cc1ccccc1)NC(=O)[C@H](CO)NC(=O)[C@](C)(CO)NC(=O)[C@@H](NC(=O)[C@H](CC(=O)O)NC(=O)[C@H](CO)NC(=O)[C@@H](NC(=O)[C@](C)(Cc1ccccc1)NC(=O)[C@H](CO)NC(=O)CNC(=O)[C@H](CCC(=O)O)NC(=O)C(C)(C)NC(=O)[C@@H](N)Cc1c[nH]cn1)[C@@H](C)O)C(C)C)C(=O)N[C@@H](C)C(=O)N[C@@](C)(Cc1ccccc1)C(=O)N[C@H](C(=O)N[C@H](C(=O)N[C@@](C)(CCCCN)C(=O)NCC(=O)NCC(N)=O)C(C)C)C(C)C [compound 158] | 140 pM | 148 pM | 160 pM | ≥ 28 nM | ≥ 28 nM | ≥ 28 nM | – | – | – | – | – | –
5 | CCCCCCCCCCCCCCCCCC(=O)NCCOCCOCC(=O)NCCCC[C@H](NC(=O)[C@@H](NC(=O)[C@@H](NC(=O)[C@](C)(Cc1ccccc1)NC(=O)[C@H](C)NC(=O)[C@@H](NC(=O)[C@](C)(Cc1ccccc1)NC(=O)[C@H](CCC(=O)O)NC(=O)[C@](C)(CCCCN)NC(=O)[C@H](C)NC(=O)[C@H](C)NC(=O)[C@H](CCC(=O)O)NC(=O)CNC(=O)[C@H](CCC(=O)O)NC(=O)[C@H](CC(C)C)NC(=O)[C@](C)(Cc1ccccc1)NC(=O)[C@H](CO)NC(=O)[C@](C)(CO)NC(=O)[C@@H](NC(=O)[C@H](CC(=O)O)NC(=O)[C@H](CO)NC(=O)[C@@H](NC(=O)[C@](C)(Cc1ccccc1)NC(=O)[C@H](CO)NC(=O)CNC(=O)[C@H](CCC(=O)O)NC(=O)C(C)(C)NC(=O)[C@@H](N)Cc1c[nH]cn1)[C@@H](C)O)C(C)C)[C@@H](C)CC)C(C)C)C(C)C)C(=O)NCC(=O)NCC(N)=O [compound 188] | 170 pM | 125 pM | 77 pM | ≥ 28 nM | ≥ 28 nM | ≥ 28 nM | – | – | – | – | – | –
6 | CC[C@H](C)[C@H](NC(=O)[C@](C)(Cc1ccccc1)NC(=O)[C@H](CCC(=O)O)NC(=O)[C@](C)(CCCCN)NC(=O)[C@H](C)NC(=O)[C@H](C)NC(=O)[C@H](CCC(=O)O)NC(=O)CNC(=O)[C@H](CCC(=O)O)NC(=O)[C@H](CC(C)C)NC(=O)[C@](C)(Cc1ccccc1)NC(=O)[C@H](CO)NC(=O)[C@](C)(CO)NC(=O)[C@@H](NC(=O)[C@H](CC(=O)O)NC(=O)[C@H](CO)NC(=O)[C@@H](NC(=O)[C@](C)(Cc1ccccc1)NC(=O)[C@H](CO)NC(=O)CNC(=O)[C@H](CCC(=O)O)NC(=O)C(C)(C)NC(=O)[C@@H](N)Cc1c[nH]cn1)[C@@H](C)O)C(C)C)C(=O)N[C@@H](C)C(=O)N[C@@](C)(Cc1ccccc1)C(=O)N[C@H](C(=O)N[C@H](C(=O)N[C@@H](CCCCNC(=O)CCCCCNC(=O)CCCCCNC(=O)CCCCCNC(=O)CCCCCCCCCCCCCCCCC(=O)O)C(=O)NCC(=O)NCC(N)=O)C(C)C)C(C)C [compound 196] | – | – | – | – | – | – | 125 pM | 190 pM | 63 pM | ≥ 26 nM | ≥ 26 nM | ≥ 26 nM
